Experimental data taken from patent US7413536B1, “Substrates and screening methods for transport proteins” (XenoPort, Inc., priority 1999, dated 2008).

Columns and labels:
[1] = molecular target: T1, rat intestinal bile acid transporter (Rattus norvegicus, UniProt Q62633); assay: Substrate activity for the intestinal bile acid transporter; type: cell-based
T1 sequence (Q62633 1-348): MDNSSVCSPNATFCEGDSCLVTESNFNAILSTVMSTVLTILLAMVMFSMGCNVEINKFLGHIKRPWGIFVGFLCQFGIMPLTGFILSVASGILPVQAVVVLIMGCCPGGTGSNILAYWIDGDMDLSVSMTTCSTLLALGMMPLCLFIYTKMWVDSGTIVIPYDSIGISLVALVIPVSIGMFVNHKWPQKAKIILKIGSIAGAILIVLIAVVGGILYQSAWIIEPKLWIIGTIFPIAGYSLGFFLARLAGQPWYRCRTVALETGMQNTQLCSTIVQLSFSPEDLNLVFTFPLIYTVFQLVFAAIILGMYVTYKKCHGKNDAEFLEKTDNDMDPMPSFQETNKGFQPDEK

Oral absorption in rat = type: in vivo

oral absorption (Oral absorption in rat; rat) | Molecule | substrate for the rat intestinal bile acid transporter [1] | hydrolysis upon oral absorption (uncharacterized amidase activity) releasing parent drug (Oral absorption in rat)
– | COc1ccc2cc(C(C)C(=O)NCCCCC(NC(=O)CCC(C)C3CCC4C5C(O)CC6CC(O)CCC6(C)C5CC(O)C34C)C(=O)O)ccc2c1 (stereo not shown) [Cholyl-Lysine-(ε-Naproxen)-OH] | retains activity | hydrolyzed
effectively absorbed orally | cholyl-lys-(ε-NBD)-OH [cholyl-L-Lys-(ε-NBD)-OH] | substrate | –
